In US20220194945A1, “Imidazolopyridine Compounds For IRE1 Inhibition” (Optikira, LLC, priority 2019, published 2022) one finds IC50 data, which are given here for one molecule.

In one experiment the target is T1, IRE1α (Homo sapiens, UniProt O75460).
T1 construct: purchased Signal Chem E31-11G
Kind of experiment: Biochemical assay: inhibition of RNase activity of IRE1α. Conditions: IRE1α kinase (E31-11G, Signal Chem) 0.325 nM, substrate 100 nM, 30 min pre-incubation, read-out: In vitro assay IC50. The protocol:
Biochemical Assay: Inhibition of RNase activity of IRE1α
The RNase reactions were performed in 384 well black ProxiPlate-384 Plus plates (PERKIN Elmer) using 50 mM Tris assay buffer with 0.5 mM MgCl2, 10 mM KCl, 0.03% Tween, 2 mM DTT and 1% DMSO. Test compounds were prepared on the day of assay and dispensed using D300 digital dispenser as a 10-point ½ log dilution series in duplicate, normalized to a final DMSO concentration of […]. Test compounds were pre-incubated for 30 min at room temperature with IRE1α kinase (E31-11G from Signal Chem) in 2.5 μL of assay buffer. Then 2.5 μl of assay buffer containing substrate (5′ Alexa Fluor 647-rCrArU rGrUrC rCrGrC rArGrC rGrCrArUrG-Iowa Black RQ quencher 3′) added, giving a final concentration of enzyme of 0.325 nM and of substrate of 100 nM. After 20 minutes incubation at room temperature the reactions were stopped by added 5 μL of 5M urea, incubated at room temperature for 10 minutes and fluorescence measured on a plate reader (EnVision, PerkinElmer) IC50 values calculated by fitting a sigmoidal curve to percent inhibition of control versus compound concentration.
(§1) In vitro assay data are for the inhibition of RNase activity of IRE1α. Cellular assay (IC50 data) are for the XBP1 splicing assay.

In a further experiment the test system is XBP1 splicing. Briefly: Cellular XBP1 splicing assay. The experiment is classed as cell-based. Conditions: Homo sapiens, ARPE-19 cells stably expressing XBP1-nano-luciferase, thapsigargin 150 nM, 4 hour incubation. As to the method: Cellular XBP1 Splicing Assay
ARPE-19 cells stably expressing XBP1 (a.a. 1-376) with nano-luciferase gene sequence linked so it is in frame when XBP1 is spliced, were cultured in F12 media, 10% FBS, 0.044% sodium bicarbonate, 150 μg/ml hygromycin B and seeded for assays at 5,000 cells in 384 well plates in culture media without hygromycin B and incubated at 37° C./5% CO2. After overnight incubation test compounds were added to the cell plate in a 10-point ½ log dilution series in duplicate (final DMSO concentration 0.117%). After further incubation of 30 minutes thapsigargin was added (final concentration 150 nM) and then another 4 hour incubation. A NanoLuc luciferase assay (Promega) was used according to the manufacturer's instructions to detect the luciferase and luminescence measured on a luminometer (EnVision, PerkinElmer). IC50 values calculated by fitting a sigmoidal curve to percent inhibition of control of compound concentration.
as §1

T1 sequence (O75460 468-977 limits assumed): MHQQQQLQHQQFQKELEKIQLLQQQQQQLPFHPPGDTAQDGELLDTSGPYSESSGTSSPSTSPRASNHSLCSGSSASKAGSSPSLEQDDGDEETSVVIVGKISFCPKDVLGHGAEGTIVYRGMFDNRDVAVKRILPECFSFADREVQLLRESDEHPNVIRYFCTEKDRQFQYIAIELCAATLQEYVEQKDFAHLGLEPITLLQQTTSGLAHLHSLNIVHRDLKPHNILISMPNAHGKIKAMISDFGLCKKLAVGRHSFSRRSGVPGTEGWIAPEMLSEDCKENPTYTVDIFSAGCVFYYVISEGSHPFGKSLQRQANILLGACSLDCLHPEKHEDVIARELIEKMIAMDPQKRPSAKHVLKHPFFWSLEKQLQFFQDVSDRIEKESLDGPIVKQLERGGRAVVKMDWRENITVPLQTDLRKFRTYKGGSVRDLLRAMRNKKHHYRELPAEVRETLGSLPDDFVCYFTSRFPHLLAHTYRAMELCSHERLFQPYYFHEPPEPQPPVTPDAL

Consider `COc1nc(NS(=O)(=O)c2ccccc2Cl)ccc1-c1nc(C(C)C)n2c(C3=CCC(NC4COC4)CC3)cnc(N)c12` (centres unmarked) [Example 20, N-(5-(8-amino-3-isopropyl-5-(4-(oxetan-3-ylamino)cyclohex-1-en-1-yl)imidazo[1,5-a]pyrazin-1-yl)-6-methoxypyridin-2-yl)-2-chlorobenzenesulfonamide], for which the half-maximal inhibitory concentration (IC50) (in general, the concentration at which inhibition is half-maximal) at IRE1α was over 1 µM; in the experiment with XBP1 splicing, over 10 µM.
